Target: Bcl-2-like protein 1 (Homo sapiens, UniProt Q07817)
Experiment: Inhibition of GST-tagged Bcl-xL (unknown origin) measured after 1 hr incubation by fluorescence polarization assay

Sequence of Bcl-2-like protein 1 (Q07817 whole entry): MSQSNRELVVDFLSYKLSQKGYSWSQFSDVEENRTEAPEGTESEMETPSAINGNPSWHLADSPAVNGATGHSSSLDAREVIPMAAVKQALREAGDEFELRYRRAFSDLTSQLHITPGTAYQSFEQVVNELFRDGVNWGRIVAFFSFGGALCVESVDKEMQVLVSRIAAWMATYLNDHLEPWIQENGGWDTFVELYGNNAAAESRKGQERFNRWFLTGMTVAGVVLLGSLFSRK

| IC50 [nM] | Ki [nM] | Compound |
| --- | --- | --- |
| 11 |  | CN(C)CC[C@H](CSc1ccccc1)Nc1ccc(S(=O)(=O)NC(=O)c2ccc(N3CCN(Cc4cccc(-c5ccccc5)c4)CC3)cc2)cc1[N+](=O)[O-] |
|  | 500 | O=C(O)c1ccccc1C(=O)c1ccc(Sc2ccc(Cl)cc2)c([N+](=O)[O-])c1 |
| 3 |  | CN(C)CC[C@H](CSc1ccccc1)Nc1ccc(S(=O)(=O)Nc2ncnc3cc(N4CCN(Cc5ccccc5-c5ccc(Cl)cc5)CC4)ccc23)cc1[N+](=O)[O-] |
| 22000 |  | CCCN(C(=O)N[C@@H](CSCC(C)C)C(=O)O)C(=O)c1cccc(C#Cc2ccc(F)cc2F)c1 |
| 13000 |  | CCCN(C(=O)N[C@@H](CSCc1ccc(Br)cc1)C(=O)O)C(=O)c1cccc(C#Cc2ccc(F)cc2F)c1 |
|  | 2400 | CC(C)C(C(=O)O)N1C(=O)/C(=C/c2ccc(Br)cc2)SC1=S (centres undefined) |
| 6 |  | Cc1c(C(=O)O)c(-c2cccc(N3CCN(c4ccc(NS(=O)(=O)c5ccc(NC(CCN(C)C)CSc6ccccc6)c([N+](=O)[O-])c5)cc4)CC3)c2)c(-c2ccc(Cl)cc2)n1C (centres undefined) |

| Compound | IC50 [nM] | Ki [nM] |
| --- | --- | --- |
| O=C(O)c1cccc(-c2ccc3c(c2)/C(=N/Nc2nc4ccccc4s2)CCC3)n1 | 21 |  |
| Cc1cc2c(C(C)C)c(O)c(O)c(C=O)c2c(O)c1-c1c(C)cc2c(C(C)C)c(O)c(O)c(C=O)c2c1O [GOSSYPOL] |  | 1000 |
